US8822509B2, “Pain-relieving compositions and uses therefor” (priority 2006, dated 2014)
“Also recorded” adds a separate entry of the source. Read-outs that look alike come from different tables or passages of the source. Marks after values point to notes of the source that are not given here.

What was measured:
[1] = target: T1, μ-opioid receptors (MOP receptors) (Mus musculus, UniProt P42866); assay type: cell-based
T1 construct: expressed in transfected cells; host or cells: HEK293
Procedure: Briefly, HEK-MOP cells were pre-incubated with 2% (2-hydroxypropyl)-β-cyclodextrin (βCD) for 1 h at 37° C. to deplete cholesterol from caveloae in the cell membrane. Cells were washed with DMEM and then utilized in the forskolin-stimulated cAMP assay as described above. […] Cells were washed with DMEM and then utilized in the forskolin-stimulated cAMP assay as described above.

[2] = target: T1, μ-opioid receptors (MOP receptors); assay type: cell-based; remark: listed apart in the source

T1 sequence (P42866 whole entry): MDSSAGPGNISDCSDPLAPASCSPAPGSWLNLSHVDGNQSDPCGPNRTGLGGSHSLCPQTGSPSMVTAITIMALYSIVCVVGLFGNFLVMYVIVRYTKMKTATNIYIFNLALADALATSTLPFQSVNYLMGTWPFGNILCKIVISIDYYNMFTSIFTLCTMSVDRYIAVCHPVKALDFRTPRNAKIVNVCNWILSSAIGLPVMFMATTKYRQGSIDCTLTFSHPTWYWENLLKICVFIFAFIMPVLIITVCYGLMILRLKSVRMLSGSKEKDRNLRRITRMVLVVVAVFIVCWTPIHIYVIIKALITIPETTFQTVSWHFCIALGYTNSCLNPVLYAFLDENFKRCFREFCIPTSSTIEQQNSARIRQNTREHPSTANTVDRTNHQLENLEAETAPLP

Compound	% of forskolin stimulated cyclic AMP response ([1]; Conc 10^−3 M) [%]	% of forskolin stimulated cyclic AMP response ([1]; Conc 10^−4 M)	% of forskolin stimulated cyclic AMP response ([1]; Conc 10^−5 M)	% of forskolin stimulated cyclic AMP response ([1]; Conc 10^−6 M)	% of forskolin stimulated cyclic AMP response ([1]; Conc 10^−7 M) [%]	% of forskolin stimulated cyclic AMP response ([1]; Conc 10^−8 M)	% of forskolin stimulated cyclic AMP response ([1]; Conc 10^−9 M)	% of forskolin stimulated cyclic AMP response ([1]; Conc 10^−11 M) [%]	% of forskolin stimulated cyclic AMP response ([1]; Conc 10^−13 M)	% of forskolin stimulated cyclic AMP response ([1]; Conc 10^−14 M)	% of forskolin stimulated cyclic AMP response ([1]; Conc 10^−15 M)	% of forskolin stimulated cyclic AMP response ([1]; Conc 10^−16 M)	% of forskolin stimulated cyclic AMP response ([1]; Conc 10^−17 M)	% of forskolin stimulated cyclic AMP response ([1]; Conc 10^−18 M)	% of forskolin stimulated cyclic AMP response ([2]; Conc 10^−10 M)	% of forskolin stimulated cyclic AMP response ([2]; Conc 10^−12 M)	effect on forskolin-stimulated cAMP responses ([2]; MOP-transfected HEK293 (FIG. 11))
Cc1c(-c2ccccc2)no[n+]1[O-] [Compound 13]	40.2	67.1%	109.4^a %	84.5^a %	78.8	80.3%	94.9%	66.3	89.6%	99.4^a %	101.5%	88.3^a %	105.3%	61.2%	106.9%	108.8%	
CCc1c(C(=O)O)no[n+]1[O-] [Compound 8]	6.8	68.2%	90.0%	104.7%	102.9	114.3%	107.0%	88.3	112.7%	94.8%	97.6%	140.5%	115.0%	72.8%	79.4%	128.3%	
Cc1c(-c2ccc(F)cc2)no[n+]1[O-] [Compound 23]	46.6	121.2%	66.2%	90.0%	89.0	98.2%	64.0%	75.7	87.6%	79.2%	80.4%	77.1%	73.6%	80.2%	56.5%	74.7%	
[O-][n+]1onc(-c2ccccc2)c1CO [Compound 31]	3.8	182.4^a %	96.9^a %	60.0^a %	108.4	36.2^a %	76.8^a %	61.0	85.7%	77.5^a %	42.2^a %	54.8%	48.5^a %	94.5%	42.8^a %	81.4%	
[O-][n+]1onc(-c2ccc(F)cc2)c1-c1ccc(F)cc1 [Compound 21]	7.1	42.1%	63.5%	53.0%	47.3	57.5%	46.5%	29.9	61.5%	59.7%	64.0%	67.7%	49.1%	38.7%	38.4%	42.9%	
[O-][n+]1onc(-c2ccccc2)c1-c1ccccc1 [Compound 5]	69.6	99.8%	120.4%	142.4%	112.7	73.6%	57.7%	76.3	102.3%	105.6%	117.0%	91.2%	75.8%	68.7%	79.2%	119.1%	
Nc1nc2c(nc(Br)n2[C@@H]2O[C@@H]3COP(=O)(O)O[C@H]3[C@H]2O)c(=O)[nH]1 [Compound 8-Br-cGMP, 8-Br-cGMP, reference compound]																	did not inhibit forskolin-stimulated cAMP responses; also recorded: lack of effects
COc1ccc(-c2no[n+]([O-])c2C)cc1 [Compound 24]	71.2	106.7^a %	131.1^a %	56.7%	94.3	53.8^a %	132.4%	79.4	82.3%	75.1%	97.0^a %	88.0%	70.0%	70.0%	60.2%	90.1%	
O=C(O)c1c(-c2ccc(F)cc2)no[n+]1[O-] [Compound 18]	7.1	79.0%	97.7%	101.0%	91.9	81.7%	142.3^a %	77.5	85.4%	85.3%	90.4%	89.6%	94.1%	54.7^a %	83.6%	82.2%	
CC(=O)c1c(-c2ccccc2)no[n+]1[O-] [Compound 27]	22.4	73.8^a %	128.2%	60.0%	83.2	86.4%	56.4%	84.4	88.3^a %	78.2%	115.4%	162.4%	108.6^a %	56.5%	46.0%	66.7^a %	
O=Cc1c(-c2ccccc2)no[n+]1[O-] [Compound 14]	8.5	40.7^a %	51.0^a %	110.6^a %	121.5	113.2^a %	107.4%	62.7	94.2%	103.4^a %	103.8%	129.8%	120.5%	95.1%	69.5%	92.8%	
